Laboratory results taken from PubChem BioAssay (NCI).
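Each compound was tested at five concentrations against cells in 96-well plates for 48 hours. TGI is the concentration that stops growth completely.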

Columns and labels:
Test in all cases: DTP human tumour cell line panel, 48 h
U251 CNS = test system: U251 CNS
TK-10 renal = test system: TK-10 renal
ACHN renal = test system: ACHN renal
UACC-257 melanoma = test system: UACC-257 melanoma
K-562 leukemia = test system: K-562 leukemia
SF-295 CNS = test system: SF-295 CNS
NCI-H23 lung = test system: NCI-H23 lung
SN12C renal = test system: SN12C renal
IGROV1 ovarian = test system: IGROV1 ovarian
RXF 393 renal = test system: RXF 393 renal
MDA-MB-435 = test system: MDA-MB-435
OVCAR-3 ovarian = test system: OVCAR-3 ovarian
LOX IMVI melanoma = test system: LOX IMVI melanoma
MDA-N = test system: MDA-N
EKVX NSCLC = test system: EKVX NSCLC
NCI-H522 lung = test system: NCI-H522 lung
KM12 colon = test system: KM12 colon
MCF7 breast = test system: MCF7 breast
T-47D breast = test system: T-47D breast
NCI/ADR-RES ovarian = test system: NCI/ADR-RES ovarian
OVCAR-4 ovarian = test system: OVCAR-4 ovarian
MOLT-4 leukemia = test system: MOLT-4 leukemia
M14 melanoma = test system: M14 melanoma
HL-60(TB) leukemia = test system: HL-60(TB) leukemia
SK-MEL-5 melanoma = test system: SK-MEL-5 melanoma
OVCAR-8 ovarian = test system: OVCAR-8 ovarian
SF-268 CNS = test system: SF-268 CNS
SNB-19 CNS = test system: SNB-19 CNS
SF-539 CNS = test system: SF-539 CNS
HT29 colon = test system: HT29 colon
MDA-MB-231 breast = test system: MDA-MB-231 breast
COLO 205 colon = test system: COLO 205 colon
OVCAR-5 ovarian = test system: OVCAR-5 ovarian
786-0 renal = test system: 786-0 renal
UO-31 renal = test system: UO-31 renal
HCT-15 colon = test system: HCT-15 colon
CAKI-1 renal = test system: CAKI-1 renal
MALME-3M melanoma = test system: MALME-3M melanoma
SK-MEL-2 melanoma = test system: SK-MEL-2 melanoma
NCI-H460 lung = test system: NCI-H460 lung
HOP-62 NSCLC = test system: HOP-62 NSCLC
RPMI-8226 leukemia = test system: RPMI-8226 leukemia
SNB-75 CNS = test system: SNB-75 CNS
HCC-2998 colon = test system: HCC-2998 colon
DU-145 prostate = test system: DU-145 prostate
HS 578T breast = test system: HS 578T breast
SK-MEL-28 melanoma = test system: SK-MEL-28 melanoma
SK-OV-3 ovarian = test system: SK-OV-3 ovarian
A549 NSCLC = test system: A549 NSCLC
SW-620 colon = test system: SW-620 colon
CCRF-CEM leukemia = test system: CCRF-CEM leukemia
UACC-62 melanoma = test system: UACC-62 melanoma
PC-3 prostate = test system: PC-3 prostate
BT-549 breast = test system: BT-549 breast
HCT-116 colon = test system: HCT-116 colon
NCI-H226 lung = test system: NCI-H226 lung
HOP-92 NSCLC = test system: HOP-92 NSCLC
A498 renal = test system: A498 renal

In the case of `O=c1nc2n3c4c(cccc4nc-2c(=O)[nH]1)CCC3`, the TGI (U251 CNS) is reported as > 100 µM, the TGI (TK-10 renal) is reported as > 100 µM and the TGI (ACHN renal) is reported as > 100 µM. The TGI (UACC-257 melanoma) was > 100 µM, the TGI (K-562 leukemia) was > 100 µM and the TGI (SF-295 CNS) was > 100 µM. For the same compound, the TGI (NCI-H23 lung) was > 100 µM, the TGI (SN12C renal) was > 100 µM and the TGI (IGROV1 ovarian) was > 100 µM. For the same compound, the TGI (RXF 393 renal) was > 100 µM, the TGI (MDA-MB-435) was > 100 µM and the TGI (OVCAR-3 ovarian) was > 100 µM. The TGI (LOX IMVI melanoma) was > 100 µM, the TGI (MDA-N) was > 100 µM and the TGI (EKVX NSCLC) was > 100 µM. For the same compound, the TGI (NCI-H522 lung) was 71.4 µM, the TGI (KM12 colon) was > 100 µM and the TGI (MCF7 breast) was > 100 µM. The TGI (T-47D breast) was > 100 µM, the TGI (NCI/ADR-RES ovarian) was > 100 µM and the TGI (OVCAR-4 ovarian) was > 100 µM. For the same compound, the TGI (MOLT-4 leukemia) was > 100 µM, the TGI (M14 melanoma) was > 100 µM and the TGI (HL-60(TB) leukemia) was > 100 µM. For the same compound, the TGI (SK-MEL-5 melanoma) was > 100 µM, the TGI (OVCAR-8 ovarian) was > 100 µM and the TGI (SF-268 CNS) was > 100 µM. For the same compound, the TGI (SNB-19 CNS) was > 100 µM, the TGI (SF-539 CNS) was > 100 µM and the TGI (HT29 colon) was > 100 µM. For the same compound, the TGI (MDA-MB-231 breast) was > 100 µM, the TGI (COLO 205 colon) was > 100 µM and the TGI (OVCAR-5 ovarian) was > 100 µM. The TGI (786-0 renal) was > 100 µM, the TGI (UO-31 renal) was > 100 µM and the TGI (HCT-15 colon) was > 100 µM. For the same compound, the TGI (CAKI-1 renal) was > 100 µM, the TGI (MALME-3M melanoma) was 39.2 µM and the TGI (SK-MEL-2 melanoma) was > 100 µM. The TGI (NCI-H460 lung) was > 100 µM, the TGI (HOP-62 NSCLC) was > 100 µM and the TGI (RPMI-8226 leukemia) was > 100 µM. For the same compound, the TGI (SNB-75 CNS) was > 100 µM, the TGI (HCC-2998 colon) was > 100 µM and the TGI (DU-145 prostate) was > 100 µM. For the same compound, the TGI (HS 578T breast) was > 100 µM, the TGI (SK-MEL-28 melanoma) was > 100 µM and the TGI (SK-OV-3 ovarian) was > 100 µM. For the same compound, the TGI (A549 NSCLC) was > 100 µM, the TGI (SW-620 colon) was > 100 µM and the TGI (CCRF-CEM leukemia) was > 100 µM. For the same compound, the TGI (UACC-62 melanoma) was > 100 µM, the TGI (PC-3 prostate) was > 100 µM and the TGI (BT-549 breast) was > 100 µM. The TGI (HCT-116 colon) was > 100 µM and the TGI (NCI-H226 lung) was > 100 µM.
With `C[C@H](C1CC(C)(O)C(C)(O)C(O)O1)[C@H]1CC[C@H]2[C@@H]3[C@@H]4O[C@@H]4[C@@]4(O)CC=CC(=O)[C@]4(C)[C@H]3CC[C@]12C` (stereo partly drawn) the TGI (U251 CNS) was > 50 µM, the TGI (TK-10 renal) was > 50 µM and the TGI (ACHN renal) was > 50 µM. The TGI (UACC-257 melanoma) was > 50 µM, the TGI (K-562 leukemia) was > 50 µM and the TGI (SF-295 CNS) was > 50 µM. The TGI (NCI-H23 lung) was > 50 µM, the TGI (SN12C renal) was > 50 µM and the TGI (IGROV1 ovarian) was > 50 µM. For the same compound, the TGI (RXF 393 renal) was > 50 µM, the TGI (MDA-MB-435) was > 50 µM and the TGI (OVCAR-3 ovarian) was > 50 µM. For the same compound, the TGI (LOX IMVI melanoma) was > 50 µM, the TGI (MDA-N) was > 50 µM and the TGI (EKVX NSCLC) was > 50 µM. For the same compound, the TGI (NCI-H522 lung) was > 50 µM, the TGI (KM12 colon) was > 50 µM and the TGI (MCF7 breast) was > 50 µM. The TGI (T-47D breast) was > 50 µM, the TGI (NCI/ADR-RES ovarian) was > 50 µM and the TGI (OVCAR-4 ovarian) was > 50 µM. The TGI (HOP-92 NSCLC) was > 50 µM, the TGI (MOLT-4 leukemia) was > 50 µM and the TGI (M14 melanoma) was > 50 µM. The TGI (HL-60(TB) leukemia) was > 50 µM, the TGI (SK-MEL-5 melanoma) was > 50 µM and the TGI (OVCAR-8 ovarian) was > 50 µM. The TGI (SF-268 CNS) was > 50 µM, the TGI (SNB-19 CNS) was > 50 µM and the TGI (HT29 colon) was > 50 µM. For the same compound, the TGI (MDA-MB-231 breast) was > 50 µM, the TGI (COLO 205 colon) was > 50 µM and the TGI (OVCAR-5 ovarian) was > 50 µM. The TGI (786-0 renal) was > 50 µM, the TGI (UO-31 renal) was > 50 µM and the TGI (A498 renal) was > 50 µM. The TGI (HCT-15 colon) was > 50 µM, the TGI (CAKI-1 renal) was > 50 µM and the TGI (MALME-3M melanoma) was 31.5 µM. The TGI (SK-MEL-2 melanoma) was > 50 µM, the TGI (NCI-H460 lung) was > 50 µM and the TGI (HOP-62 NSCLC) was > 50 µM. For the same compound, the TGI (RPMI-8226 leukemia) was > 50 µM, the TGI (SNB-75 CNS) was > 50 µM and the TGI (HCC-2998 colon) was > 50 µM. For the same compound, the TGI (DU-145 prostate) was > 50 µM, the TGI (HS 578T breast) was 17.4 µM and the TGI (SK-MEL-28 melanoma) was > 50 µM. For the same compound, the TGI (SK-OV-3 ovarian) was > 50 µM, the TGI (A549 NSCLC) was > 50 µM and the TGI (SW-620 colon) was > 50 µM. The TGI (CCRF-CEM leukemia) was > 50 µM, the TGI (UACC-62 melanoma) was > 50 µM and the TGI (PC-3 prostate) was > 50 µM. For the same compound, the TGI (BT-549 breast) was > 50 µM, the TGI (HCT-116 colon) was > 50 µM and the TGI (NCI-H226 lung) was > 50 µM.
